Laboratory results as given in paper PMC10786919, “Design-rules for stapled peptides with in vivo activity and their application to Mdm2/X antagonists” (Nature Communications, 2024).
≈ marks a conversion by molar mass, not a printed value. Positions of bridges follow the written chain, without caps; N, C: chain ends. Non-standard residues stand in square brackets, D forms with d. Residues, ends and D or L forms follow the SMILES beside them. Lys(N3) = [N-]=[N+]=NCCCC[C@H](N)C(=O)O; R8 = C=CCCCCCC[C@@](C)(N)C(=O)O; Cba = N[C@@H](CC1CCC1)C(=O)O; S5 = C=CCCC[C@](C)(N)C(=O)O; βAla = NCCC(=O)O; Sar = CNCC(=O)O

Columns and labels:
[1] = EPSA; assay type: physicochemical
[2] = Experimental LogD (partition coefficient); settings: for logD: not stated, Partition Coeff LogD
[3] = Lactate dehydrogenase (LDH) release assay; assay type: cell-based; settings: LDH: Cytotoxicity assay: EC50
How it was run: (§1)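 Read-out was lactate dehydrogenase release, reflecting loss of membrane integrity, in reporter-engineered HCT116 cells (p53-responsive β-lactamase) seeded at 8000 cells per well. Final DMSO was 0.5%, and reported values are geometric means from three or more biological repeats.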

[4] = Solubility assay (kinetic solubility, PBS pH 7); assay type: physicochemical; settings: pH 7, PBS; for solubility kinetic: pH 7, aqueous buffer, kinetic from dmso stock, read-out: Solubility
How it was run: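 Std: 10 mM stock → 100 µM in ACN/MeOH/DMSO (10:80:10). Sol. [µM] = (sample peak area / std peak area) × std conc.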

[5] = test system: HCT116 cells; test: Lactate dehydrogenase (LDH) release assay; assay type: cell-based
How it was run: as §1

[6] = test system: CellSensor p53RE-bla HCT-116 Cell Line; settings: 72 h
How it was run: (§2)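 Compound dilution series (10 points, 3-fold, 10 mM top stock in DMSO) tested on overnight-plated Ca Ski cells in RPMI1640/10% FBS and on blasticidin-selected p53RE-bla HCT-116 cells in McCoy's 5A; read-out was CellTiter-Glo 2.0 luminescence after room-temperature equilibration.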

[7] = test system: Ca Ski cell line; settings: 72 h
How it was run: as §2

[8] = physchem
[9] = in vitro; settings: Nanoclick permeability assay EC50
How it was run: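 Azido-peptide permeability was read as loss of NanoBRET signal (donor 450 nm, acceptor 610 nm) after adding NanoBret618-azide at 10 μM final.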

SMILES	EPSA ([1]; EPSA)	logD [2]	EC50 [3]	solubility kinetic [4]	LDH: Cytotoxicity assay: % Effect [5]	EC50 [6]	EC50 [7]	EPSA [8]	cell entry EC50 [9]	EPSA [1]	Partition Coeff LogD [2]	Solubility [4]
CC(=O)N[C@@H](CC(C)C)C(=O)N[C@H](C(=O)N[C@@H](Cc1ccccc1)C(=O)NC(C)(C)C(=O)N[C@@H](CCC(=O)O)C(=O)N[C@@H](Cc1ccc(O)cc1)C(=O)N[C@H](Cc1c[nH]c2ccccc12)C(=O)N[C@@H](CCC(N)=O)C(=O)N[C@@H](CC(C)C)C(=O)N[C@@H](CC1CCC1)C(=O)NC(C)(C)C(=O)N[C@@H](CO)C(=O)N[C@@H](C)C(=O)N[C@@H](C)C(N)=O)[C@@H](C)O [MP-256]	185 A^2	2.18	> 50 µM	91.5 µM (≈ 152 µg/mL)								
CC(=O)N[C@@H](CCCNC(=N)N)C(=O)N[C@@H](CCCNC(=N)N)C(=O)NCCCCCC(=O)N[C@@H](CC(C)C)C(=O)N[C@H](C(=O)N[C@@H](Cc1ccccc1)C(=O)N[C@]1(C)CCCCCCC=CCCC[C@@](C)(C(=O)N[C@@H](CO)C(=O)N[C@@H](C)C(=O)N[C@@H](C)C(N)=O)NC(=O)[C@H](CC2CCC2)NC(=O)[C@H](CCC(N)=O)NC(=O)[C@H](C)NC(=O)[C@H](Cc2c[nH]c3ccccc23)NC(=O)[C@H](Cc2ccc(O)cc2)NC(=O)[C@H](CCC(=O)O)NC1=O)[C@@H](C)O [MP-003]	207 A^2	2.51	31 µM	6 µM (≈ 13 µg/mL)	46.5%							
CC(=O)N[C@H](C)C(=O)N[C@H](C)C(=O)N[C@H](C)C(=O)N[C@H](C)C(=O)N[C@H](C)C(=O)N[C@H](C)C(=O)N[C@H](C)C(=O)N[C@H](C)C(=O)N[C@@H](CC(C)C)C(=O)N[C@H](C(=O)N[C@@H](Cc1ccccc1)C(=O)N[C@]1(C)CCCCCCC=CCCC[C@@](C)(C(=O)N[C@@H](CO)C(=O)N[C@@H](C)C(=O)N[C@@H](C)C(N)=O)NC(=O)[C@H](CC2CCC2)NC(=O)[C@H](CCC(N)=O)NC(=O)[C@H](C)NC(=O)[C@H](Cc2c[nH]c3ccccc23)NC(=O)[C@H](Cc2ccc(O)cc2)NC(=O)[C@H](CCC(=O)O)NC1=O)[C@@H](C)O [MP-414] (Ac-[dA][dA][dA][dA][dA][dA][dA][dA]LTF[R8]EYWAQ[Cba][S5]SAA-NH2; staple 12-19)	210 A^2	2.65	> 50.7 µM	35 µM (≈ 81 µg/mL)	-4.321%							
CC(=O)N[C@@H](CCCNC(=N)N)C(=O)N[C@@H](CCCNC(=N)N)C(=O)NCCC(=O)N[C@@H](CC(C)C)C(=O)N[C@H](C(=O)N[C@@H](Cc1ccccc1)C(=O)N[C@]1(C)CCCCCCC=CCCC[C@@](C)(C(=O)N[C@@H](CO)C(=O)N[C@@H](C)C(=O)N[C@@H](C)C(N)=O)NC(=O)[C@H](CC2CCC2)NC(=O)[C@H](CCC(N)=O)NC(=O)[C@H](C)NC(=O)[C@H](Cc2c[nH]c3ccccc23)NC(=O)[C@H](Cc2ccc(O)cc2)NC(=O)[C@H](CCC(=O)O)NC1=O)[C@@H](C)O [MP-4002]	212 A^2	2.47	37.7 µM	11 µM (≈ 23.4 µg/mL)	50.55%							
CC(=O)N[C@@H](CCCCN=[N+]=[N-])C(=O)NCCC(=O)N[C@@H](CCC(N)=O)C(=O)N[C@H](C(=O)N[C@@H](Cc1ccccc1)C(=O)N[C@]1(C)CCCCCCC=CCCC[C@@](C)(C(=O)N[C@@H](CO)C(=O)N[C@@H](C)C(=O)N[C@@H](C)C(N)=O)NC(=O)[C@H](CC2CCC2)NC(=O)[C@H](CCC(N)=O)NC(=O)[C@H](CCC(N)=O)NC(=O)[C@H](Cc2c[nH]c3ccccc23)NC(=O)[C@H](Cc2ccc(O)cc2)NC(=O)[C@H](CCC(N)=O)NC1=O)[C@@H](C)O [MP-5498] (Ac-[Lys(N3)][βAla]QTF[R8]QYWQQ[Cba][S5]SAA-NH2; staple 6-13)		2.6	> 50.6 µM	19.7 µM (≈ 40.2 µg/mL)	8.092%	6.24 µM	38.3 µM	198 A^2	0.0494 µM			
CC(=O)N[C@@H](CCCNC(=N)N)C(=O)N[C@@H](CCCNC(=N)N)C(=O)NCCC(=O)N[C@@H](CCCCN=[N+]=[N-])C(=O)N[C@@H](CC(C)C)C(=O)N[C@H](C(=O)N[C@@H](Cc1ccccc1)C(=O)N[C@]1(C)CCCCCCC=CCCC[C@@](C)(C(=O)N[C@@H](CO)C(=O)N[C@@H](C)C(=O)N[C@@H](C)C(N)=O)NC(=O)[C@H](CC2CCC2)NC(=O)[C@H](CCC(N)=O)NC(=O)[C@H](C)NC(=O)[C@H](Cc2c[nH]c3ccccc23)NC(=O)[C@H](Cc2ccc(O)cc2)NC(=O)[C@H](CCC(=O)O)NC1=O)[C@@H](C)O [MP-006]	226 A^2	2.72	26.2 µM	2 µM (≈ 4.57 µg/mL)	47.04%							
CC(=O)N[C@@H](CCCCN=[N+]=[N-])C(=O)NCC(=O)N[C@@H](CO)C(=O)NCC(=O)N[C@H](C(=O)N[C@@H](CO)C(=O)N[C@@H](Cc1ccccc1)C(=O)N[C@]1(C)CCCCCCC=CCCC[C@@](C)(C(=O)N[C@@H](CCC(=O)O)C(N)=O)NC(=O)[C@H](CC(C)C)NC(=O)[C@H](CC(C)C)NC(=O)[C@H](C)NC(=O)[C@H](Cc2c[nH]c3ccccc23)NC(=O)[C@H](Cc2ccc(O)cc2)NC(=O)[C@H](CCC(=O)O)NC1=O)[C@@H](C)O [MP-010]		2.07	> 50 µM	23 µM (≈ 44.8 µg/mL)	19.63%					Poorly Behaved		
CC(=O)N(C)CC(=O)N(C)CC(=O)N(C)CC(=O)N(C)CC(=O)N(C)CC(=O)N(C)CC(=O)N(C)CC(=O)N(C)CC(=O)N[C@@H](CC(C)C)C(=O)N[C@H](C(=O)N[C@@H](Cc1ccccc1)C(=O)N[C@]1(C)CCCCCCC=CCCC[C@@](C)(C(=O)N[C@@H](CO)C(=O)N[C@@H](C)C(=O)N[C@@H](C)C(N)=O)NC(=O)[C@H](CC2CCC2)NC(=O)[C@H](CCC(N)=O)NC(=O)[C@H](C)NC(=O)[C@H](Cc2c[nH]c3ccccc23)NC(=O)[C@H](Cc2ccc(O)cc2)NC(=O)[C@H](CCC(=O)O)NC1=O)[C@@H](C)O [MP-623] (Ac-[Sar][Sar][Sar][Sar][Sar][Sar][Sar][Sar]LTF[R8]EYWAQ[Cba][S5]SAA-NH2; staple 12-19)	200 A^2	2.41	> 50.7 µM	150 µM (≈ 347 µg/mL)	3.314%							
CC(C)C[C@H](NC(=O)[C@@H](N)CCCCN=[N+]=[N-])C(=O)N[C@H](C(=O)N[C@@H](Cc1ccccc1)C(=O)N[C@]1(C)CCCCCCC=CCCC[C@@](C)(C(=O)N[C@@H](CCC(=O)O)C(N)=O)NC(=O)[C@H](CC2CCC2)NC(=O)[C@H](CCC(N)=O)NC(=O)[C@H](C)NC(=O)[C@H](Cc2c[nH]c3ccccc23)NC(=O)[C@H](Cc2ccc(O)cc2)NC(=O)[C@H](CCC(=O)O)NC1=O)[C@@H](C)O [MP-4009] (H-[Lys(N3)]LTF[R8]EYWAQ[Cba][S5]E-NH2; staple 5-12)			> 50 µM		-2.907%					Poorly Behaved	Poorly Behaved	Poorly Behaved
CC(=O)N[C@@H](CCCCN=[N+]=[N-])C(=O)NCCC(=O)N[C@@H](CCC(=O)O)C(=O)N[C@H](C(=O)N[C@@H](Cc1ccccc1)C(=O)N[C@]1(C)CCCCCCC=CCCC[C@@](C)(C(=O)N[C@@H](CO)C(=O)N[C@@H](C)C(=O)N[C@@H](C)C(N)=O)NC(=O)[C@H](CC2CCC2)NC(=O)[C@H](CCC(N)=O)NC(=O)[C@H](CCC(=O)O)NC(=O)[C@H](Cc2c[nH]c3ccccc23)NC(=O)[C@H](Cc2ccc(O)cc2)NC(=O)[C@H](CCC(=O)O)NC1=O)[C@@H](C)O [MP-65496] (Ac-[Lys(N3)][βAla]ETF[R8]EYWEQ[Cba][S5]SAA-NH2; staple 6-13)		1.98	> 50.6 µM	83.7 µM (≈ 171 µg/mL)	2.338%	1.53 µM	> 49.8 µM	324 A^2	0.42 µM			
CC(=O)N[C@@H](CCCCN=[N+]=[N-])C(=O)NCCC(=O)N[C@@H](CC(N)=O)C(=O)N[C@H](C(=O)N[C@@H](Cc1ccccc1)C(=O)N[C@]1(C)CCCCCCC=CCCC[C@@](C)(C(=O)N[C@@H](CO)C(=O)N[C@@H](C)C(=O)N[C@@H](C)C(N)=O)NC(=O)[C@H](CC2CCC2)NC(=O)[C@H](CCC(N)=O)NC(=O)[C@H](CC(N)=O)NC(=O)[C@H](Cc2c[nH]c3ccccc23)NC(=O)[C@H](Cc2ccc(O)cc2)NC(=O)[C@H](CC(N)=O)NC1=O)[C@@H](C)O [MP-497]		2.49	> 50.6 µM	5 µM (≈ 10 µg/mL)	3.16%	7.81 µM	> 49.8 µM	202 A^2	0.271 µM			
CC(=O)N[C@@H](CC(C)C)C(=O)N[C@H](C(=O)N[C@@H](Cc1ccccc1)C(=O)NC(C)(C)C(=O)N[C@@H](CCC(=O)O)C(=O)N[C@@H](Cc1ccc(O)cc1)C(=O)N[C@H](Cc1c[nH]c2ccccc12)C(=O)N[C@@H](C)C(=O)N[C@@H](CCC(N)=O)C(=O)N[C@@H](CC1CCC1)C(=O)NC(C)(C)C(=O)N[C@@H](CO)C(=O)N[C@@H](C)C(=O)N[C@@H](C)C(N)=O)[C@@H](C)O [MP-254]	188 A^2	2.08	> 50 µM	92.5 µM (≈ 150 µg/mL)								
